Common to all, as to format: cell-based, human
The test system of assay [1] is H358 cells. Put plainly: Induction of EMT in H358 cells by growth factors and cytokines (immunoblot of EMT biomarkers). Conditions: for induction of EMT in H358 cells: single ligand, 7 days. How it is done: The human line H358 was cultured in the appropriate ATCC recommended supplemented media. Growth factor and cytokine induced EMT was monitored over a 7-14 day period. Growth factors and cytokines were obtained from commercial sources and included TGFβ 10 ng/ml, Endothelin 100 nM, IL-4 5 ng/ml, IL-6 5 ng/ml, IL-8 5 ng/ml, VEGF 10 ng/ml, Stromal derived factor, 100 ng/ml, Epidermal derived factor 10 ng/ml, MMP2, 100 ng/ml, MMP7, 100 ng/ml, MMP9, 100 ng/ml, Collagen-I, 5 μg/cm2, Collagen-IV, 5 μg/cm2, Fibronectin, 1 μg/cm2, Laminin-I, 1 μg/cm2, Vitronectin, 0.1 μg/cm2, Polylysine, 100 mg/mL, HGF, 100 ng/mL, MSP, 100 ng/ml, IGF-1, 50 ng/mL, CSF-1, 100 ng/mL, ET1, 100 nM, SDF-1alpha, 100 ng/ml PGE2, 500 nM, LPA, 10 μM, S1P, 1 μM, TGFbeta1, 2.5 ng/mL, TNFalpha, 25 ng/mL, IL1beta, 2.5 ng/mL, IL6, 2 ng/mL, IL8, 0.5 ng/mL, WNT-1, 5 ng/mL, CTGF, 20 ng/ml, Trance, 50 ng/ml, FGF1, 10 ng/ml, FGF2, 10 ng/ml, BMP4, 100 ng/ml, BMP7, 100 ng/ml, IGF2, 100 ng/ml, Oncostatin M, 100 ng/ml, NRG1, 50 ng/ml, PDGF-AA, 50 ng/ml, PDGF-BB, 30 ng/ml, WISP1, 20 ng/ml, Fulvestrant, 1 μM, LIF, 20 ng/ml, IFN g, 50 ng/ml, HMG-B1, 50 ng/ml, M-CSF, 50 ng/ml, PTHrP, 50 ng/ml, MCP1, 50 ng/ml, IL-1a, 10 ng/ml, IL-33, 50 ng/ml, IL-31, 50 ng/ml, GM-CSF, 25 ng/ml, Angiopoeitin 2, 400 ng/ml, PAR1, 100 μM, PAR2, 100 μM, PAR4, 100 μM, Wnt5a, 200 ng/ml, G-CSF, 50 ng/ml, Amphiregulin, 100 ng/ml, CNTF, 25 ng/mL, Pleiotrophin, 25 ng/ml, Prolactin, 100 ng/ml, TRAIL, 100 ng/ml.
Cell lines were treated as indicated in the text and figure legends. Cell lysates were prepared in RIPA buffer (Sigma, #R0278) containing protease (Sigma #P8340) and phosphatase (Sigma, #P5726) inhibitors. Protein concentration was determined by micro-BCA assay (Pierce, #23227). Protein immunodetection was performed by electrophoretic transfer of SDS-PAGE separated proteins to nitrocellulose, incubation with antibody and chemiluminescent second step detection (PicoWest; Pierce, #34078). The antibodies used were: E-cadherin (sc21791), N-cadherin (#7939), ErbB3 (sc285), GAPDH (#25778) and Zeb1 (#25388), all from Santa Cruz Biotechnology; vimentin (BD550513) and fibronectin (BD610077; both from BD Biosciences); β-actin (Sigma, #A5441).

In assay [2] the test system is H358 cells. Put plainly: Immunofluorescence and confocal imaging of E-cadherin and vimentin in ligand-treated H358 cells. Conditions: cells treated for 7 days. On the procedure: (§1) Cells were plated on coverslips on experimental day 0, stimulated with ligand on day 1 and refreshed with medium and ligand on day 3-4. On day 7, cells were fixed at room temperature for 10 minutes in 4% paraformaldehyde (EMS #15701)/PBS (Gibco #14190). Cells were blocked in 3% BSA/PBS and incubated with primary antibody (E-cadherin, Santa Cruz #sc21791 and Vimentin, Chemicon #AB5733) diluted in blocking buffer for two hours at room temperature. Cells were washed and incubated in secondary antibody (Invitrogen #A11029 and Chemicon #AP194R) followed by nuclear counterstain TO-PRO3 (Invitrogen #T3605). Coverslips were mounted on slides with Pro-Long Gold anti-fade reagent (Invitrogen P36934). Images were captured on a Leica DMRXE microcope with SP2 scanner using Leica Confocal Software.

The subject of assay [3] is H358 cells. Put plainly: Ligand-induced EMT in H358 cells with pharmacological inhibitors (Western blot markers, morphology). The settings on record: inhibitor and ligand for 7 days; for EMT in OSM-induced models (markers and morphology): OSM alone or in combination. How it is done:
EMD Biosciences #444937), JAK inhibitor 1 (“JAKi”; EMD Biosciences #420099), and LY294002 (PI3K inhibitor (PI3Ki); EMD Biosciences #440202) were used in the concentrations indicated. Cells were treated with inhibitor 30 minutes prior to ligand stimulation. Medium, inhibitor and ligand were refreshed on experimental day 3 to 4. Cell lines were treated as indicated in the text and figure legends. Cell lysates were prepared in RIPA buffer (Sigma, #R0278) containing protease (Sigma #P8340) and phosphatase (Sigma, #P5726) inhibitors. Protein concentration was determined by micro-BCA assay (Pierce, #23227). Protein immunodetection was performed by electrophoretic transfer of SDS-PAGE separated proteins to nitrocellulose, incubation with antibody and chemiluminescent second step detection (PicoWest; Pierce, #34078). The antibodies used were: E-cadherin (sc21791), N-cadherin (#7939), ErbB3 (sc285), GAPDH (#25778) and Zeb1 (#25388), all from Santa Cruz Biotechnology; vimentin (BD550513) and fibronectin (BD610077; both from BD Biosciences); β-actin (Sigma, #A5441).
A general note: Immunoblotting shows a protein as a band on a membrane.

The test system of assay [4] is H358 cells. Put plainly: TGFβ-induced EMT of H358 cells in 3D matrigel culture, with and without inhibitor. The settings on record: 10 μM SB431542, ligand TGFβ. How it is done: 3-Dimensional matrigel culture: Tissue culture wells were coated with a layer of matrigel of 1 mm depth or greater. H358 cells were plated on top of this in 2% matrigel with seeding density of 2,500-5000 cells/cm^2. Once the cell/matrigel layer had solidified, media was added and cultures were allowed to incubate overnight at 37° C. in a CO2 incubator before treatment of cells with ligand with and without addition of 10 μM SB431542 (Sigma-Aldrich, St. Louis, Mo.; product #S4317). Culture media, ligand with and without addition of 10 μM SB431542 was replenished every 3-4 days during the duration of the experiment.
as §1, with “Images were captured on a Leica DMRXE microcope with SP2 scanner using Leica Confocal Software.” left out

Entries after “also recorded” stand apart in the source; their conditions may differ.

With “HGF: hepatocyte growth factor (Peprotech #100-39)”, the “E-cadherin repression or vimentin induction as single agents” value in the assay with H358 cells [1] (seven day treatment of H358) is “neither HGF or OSM as single agents produced significant”. The “extent of EMT at the single cell level (E-cadherin and vimentin expression and localization)” value in the assay with H358 cells [2] was “partial EMT”.
In the case of TGFβ, the E-cadherin expression result is given as “marked decrease” in the assay with H358 cells [1] (seven day treatment of H358) and “very substantial” with H358 cells [1] (seven day treatment of H358, listed as TGF-beta). The vimentin expression result in the assay on H358 cells [1] (seven day treatment of H358) was “robust increase”. Further, the “induction of EMT in H358 cells” value in the assay with H358 cells [1] is recorded as “most complete EMT”. The “extent of EMT at the single cell level (E-cadherin and vimentin expression and localization)” value in the assay on H358 cells [2] is on record as “more complete EMT”.
As to TNFα, in the assay with H358 cells [1], the “induction of EMT in H358 cells” value is listed as “able to induce EMT”.
As to `CC(C)(C)c1nc2c3cc[nH]c(=O)c3c3cc(F)ccc3c2[nH]1` [JAK inhibitor], the “EMT in OSM-induced models (markers and morphology)” value in the assay on H358 cells [3] is recorded as “blocked”. Also, the “EMT in OSM-induced models (markers and morphology)” value with H358 cells [3] (listed as JAKi) is given as “blocks”. In the assay with H358 cells [3] (Western blot), the “downregulation of E-cadherin induced by OSM, TGFβ, HGF+OSM and TGFβ+OSM” value was “blocked”; the “upregulation of vimentin by OSM, HGF+OSM and TGFβ+OSM” value is “attenuated”.
On to `NC(=O)c1ccc(-c2nc(-c3ccc4c(c3)OCO4)c(-c3ccccn3)[nH]2)cc1` [SB431542], for which the “epithelial to mesenchymal transition induced by TGFβ (vimentin, E-cadherin)” value with H358 cells [4] is reported as “abrogated; also recorded: inhibited”.
As for “EGF: epidermal growth factor, protein ligand”, in the assay with H358 cells [1], the “induction of EMT in H358 cells” value is on record as “to a lesser extent”.

For the origin of these results see patent US7951549B2, “Methods for the identification of agents that inhibit mesenchymal-like tumor cells or their formation” (OSI Pharmaceuticals, Inc., priority 2008, dated 2011).
